A compilation of properties of binary mixtures (doi:10.1007/s10973-016-5820-0)

Test: xn = mol fraction of the nth substance listed
Conditions: 100 kPa

O=C1CCCCC1 + CCCC[n+]1ccn(C)c1.F[B-](F)(F)F
speed of sound [m/s]
Conditions	293.15 K	298.15 K	303.15 K	308.15 K
x2 = 0	1431.2	–	1395.1	1375.1
x2 = 0.0736	1425.9	1409.5	1390.7	–
x2 = 0.1128	1424.7	1408.5	–	–
x2 = 0.1597	1424.6	–	1390.2	1371.2
x2 = 0.2045	–	1409.9	1391.8	1373
x2 = 0.2459	–	1412.1	1394.2	1375.6
x2 = 0.2933	1431.3	–	–	1379.7
x2 = 0.3481	1436.6	1421.1	1403.7	–
x2 = 0.3956	1442.2	1426.9	1409.8	1392
x2 = 0.4429	1448.6	1433.5	1416.7	1399.3
x2 = 0.4937	1456.5	1441.6	1425.2	1408.1
x2 = 0.5344	1463.5	1448.7	1432.6	1415.8
x2 = 0.5938	1474.6	1460.1	1444.5	1428.2
x2 = 0.6557	1487.3	1473.1	–	1442.4
x2 = 0.7028	1497.8	1483.8	1469.3	1454
x2 = 0.7409	1506.7	1493	–	–
x2 = 0.7973	1520.6	1507.2	1493.7	1479.5
x2 = 0.8564	1536.1	1523	1510.2	1496.7
x2 = 0.9047	1549.6	1536.7	1524.4	–

CCCC[n+]1ccn(C)c1.F[B-](F)(F)F + O=C1CCCCC1
x1 = 1
Conditions	speed of sound [m/s]
293.15 K	1578.1
298.15 K	1565.5
303.15 K	1554.1
308.15 K	1542.3
